In general, viability refers to a read-out of living cells in per cent, often relative to untreated cells.

Drawing on publication PMC12040169 (PLOS Biology, 2025), this text covers viability for 81 compounds.

This data set is described as follows: in vitro. The following applies: human, hela cells, % viability.

Regarding `O=C(c1cc[nH]n1)N1CCc2nc(-c3cccc(F)c3)sc2C1` [CBK281915], the viability at 28.5 h, 10 µM was found to be 84.9%.
Under `Cc1nc(-c2ccccc2)sc1CNC(=O)C(F)(F)F` [CBK092363] stands 88.8%; under `O=c1[nH]c2ncc(-c3cccc4ccccc34)nc2n1Cc1cccnc1` [CBK064274], 102%; under `N#Cc1cccc(NC(=O)CN2CCN(C(=O)C3COc4ccccc4O3)CC2)c1` (stereo not drawn) [CBK074779], 93.5%.
Under `C[C@@H](Cn1nnc2ccccc21)NC(=O)Cc1cccc(F)c1` [CBK282306] stands 90.8%; under `COc1ccc(NS(=O)(=O)c2cc(C(=O)O)c(Cl)cc2Cl)cc1` [CBK095077], 89.7%; under `Nn1cnn2c(SCC(=O)c3cccs3)nnc12` [CBK263184], 105%.
Under `Cc1nc2c(-c3cccs3)c(C)nn2c(O)c1C` [CBK283728] stands 99.9%.
For `OCCOCCNc1ncnc2sc(-c3ccccc3)cc12` [CBK265951], the viability at 28.5 h, 10 µM was found to be 76%.
For `Cc1n[nH]c(C)c1CCCCCOc1ccccc1` [CBK027211C] the value was 84.3%.
For `COc1ccc([C@@]23CC[C@@H](NC(=O)Nc4c(F)ccc(F)c4Cl)C[C@@H]2N(C)CC3)cc1OC` [CBK073769T] the value was 93%; for `CC(=O)N1CCC[C@H]2NC(=O)CNC(=O)C3(C/C=C/C[C@H]21)CCN(CC(C)C)CC3` [CBK292088], 106%; for `O=C1NC2(CCN(C(=O)C(F)(F)F)CC2)Oc2ccccc21` [CBK283906], 94%.
Regarding `COc1ccc(NC(=O)N(CCO)C2CCCCC2)c(OC)c1` [CBK008768], the viability at 28.5 h, 10 µM came out at 90.9%.
For `c1ccc(SCCN2CCOCC2)cc1` [CBK027679] the value was 97.8%.
For `O=C(c1cccs1)N1CCCN(Cc2cn3ccccc3n2)CC1` [CBK305304] the value was 102%.
Under `O=C(CN1CC[C@H]2NC(=O)COc3ccccc3CCCC[C@@H]2C1)NCc1ccccn1` [CBK292046] stands 96.7%; under `CCn1c(=O)[nH]c(=O)c2cnc(-c3ccc(OC)cc3)nc21` [CBK291259], 107%; under `Cc1nn(C)cc1-c1cncn1CCOc1ccc(Cl)cc1` [CBK281508], 87.5%.
In the case of `CCC(=O)N1CCN(c2nc3ccc(OC)cc3s2)CC1` [CBK287721], the viability at 28.5 h, 10 µM amounted to 92.2%.
For `COc1ccccc1-c1nnc2sc(-c3cnccn3)nn12` [CBK268428], the viability at 28.5 h, 10 µM worked out at 100%.
Under `Oc1ccc(SCCCCCN2CCCCC2)cc1` [CBK261488] stands 92.3%.
For `CCOC(=O)CCNC(=O)c1ccccc1-n1cccc1` [CBK149611] the value was 95.3%; for `CCOC(=O)C1(C2CCCCC2)CCN(C(=O)CC2NC(=O)NC2=O)CC1` (stereo not drawn) [CBK136938], 100%; for `CN1CCC(COC(=O)Nc2ccc3cc[nH]c3c2)CC1` [CBK200130], 98.7%.
On to `C=Cn1ncc(CN(CCCN(C)C)Cc2ccco2)c1C` [CBK283228], for which the viability at 28.5 h, 10 µM was found to be 96.8%.
Under `CCOC(=O)CN1CCC(Oc2cncc(OCC3COc4ccccc4O3)n2)C1` (stereo not drawn) [CBK084375] stands 92.6%; under `Cc1nc(NCCN2CCCC(CO)C2)nc2c1CCCC2` (stereo not drawn) [CBK307430], 82%.
For `O=C(COc1ccccc1)NC(=S)Nc1cccc(-c2nc3ccccc3s2)c1` [CBK264360] the value was 107%; for `C=CCOc1ccc(CNc2cccc(C(=O)O)c2)cc1OC` [CBK074468], 98.5%.
Under `CC(=O)c1sc(NC(=O)Cc2ccc(C)cc2)nc1C` [CBK287760] stands 89.3%; under `Cc1nc(C)n(CC2CCCN(Cc3cc(=O)n4ccccc4n3)C2)n1` (stereo not drawn) [CBK304135], 88.5%; under `CSCC[C@@H]1NC(=O)N(c2ccc(CN3CCOCC3)cc2)C1=O` [CBK287954], 83.2%.
On to `Cc1ccc(C2C3=C(CC(C)(C)CC3=O)Nc3[nH][nH]c(=O)c32)o1` (stereo not drawn) [CBK288147], for which the viability at 28.5 h, 10 µM is 104%.
Under `C(=C\c1ccccc1)/CN1CCN(c2ncccn2)CC1` [CBK261909] stands 92.3%; under `CCN(CC)CCN(CCc1ccc(OC)c(OC)c1)C(=O)Nc1ccc(Cl)cc1` [CBK160510], 96.6%.
Under `COc1ccc(CCNc2ncnc3c2cnn3-c2ccc(Cl)cc2)cc1OC` [CBK265804] stands 105%; under `S=c1[nH]nc2ccc(N3CCOCC3)nn12` [CBK008327], 101%; under `CN(CC(=O)Nc1cc2ccccc2c(N2CCNCC2)n1)C(=O)c1ccccc1` [CBK028421T], 93%.
For the compound `c1ccc2c(c1)CCC(Oc1cncc(N3CCNCC3)n1)C2` (stereo not drawn) [CBK172295G], the viability at 28.5 h, 10 µM came out at 97%.
For `Cn1nc(C(Cc2ccccc2)NC(=O)c2ccco2)c2cccnc21` (stereo not drawn) [CBK285223] the value was 97.1%; for `CC(C)COc1ccc(C(CC(=O)O)C(=O)O)cc1` (stereo not drawn) [CBK286759], 103%; for `Cn1ncc(N2CCC(CNC(=O)COc3cccc(F)c3)C2)cc1=O` (stereo not drawn) [CBK307692], 87.1%.
As for `Clc1ccc(Nc2ncnc3ccccc23)cc1` [CBK072625], the viability at 28.5 h, 10 µM was 86.1%.
For `Cc1nn(C)c(C)c1CN(C)C(=O)C(C)Cn1cc(Cl)cn1` (stereo not drawn) [CBK282187] the value was 92.8%; for `COCCn1ccnc1C1CCN(C(=O)C(O)c2cccc(Cl)c2)CC1` (stereo not drawn) [CBK306901], 99.8%; for `Cc1[nH]c(=O)[nH]c(=O)c1CCC(=O)N(C)CC(=O)Nc1cccc(F)c1` [CBK305703], 99.6%.
Under `CCOCc1nc2c(c(NCCn3cccn3)n1)CCN(C(C)=O)CC2` [CBK307707] stands 98.3%; under `CCn1c(CN2CCC(c3noc(C)n3)CC2)nc2c(F)cccc21` [CBK304960], 91.1%.
For `COc1cc(/C=N/NC(=O)CCNc2n[nH]c(=O)[nH]c2=O)cc(Br)c1O` [CBK263494] the value was 88.3%; for `O=C1NC(Nc2ccc(SCCN3CCOCC3)cc2)c2ccccc21` (stereo not drawn) [CBK010123], 93.6%; for `CC(C)C(NS(=O)(=O)c1ccc2ccccc2c1)C(=O)O` (stereo not drawn) [CBK286919], 96.7%.
`Cc1csc2c(N3CCC(NCCc4ccnn4C)CC3)ncnc12` [CBK307515]: the viability at 28.5 h, 10 µM amounted to 89.8%.
On to `Cc1noc(C)c1C(=O)NC1(c2ccc(F)cc2)CCCC1` [CBK284013], for which the viability at 28.5 h, 10 µM amounted to 93.4%.
Under `CCCN1C(=O)COc2ccc(-c3noc(-c4ccccn4)n3)cc21` [CBK288596] stands 92.1%.
For `O=C(c1ccccc1Br)N1CCCCC1` [CBK028504] the value was 87.6%; for `Cc1ccc(S(=O)(=O)NCCSc2nc(-c3ccc([N+](=O)[O-])cc3)c[nH]2)cc1` [CBK268518], 97%.
For `COc1ccc(C(NC(=O)c2cc(C)oc2CN2CCCC2)c2ccccc2)cc1` (stereo not drawn) [CBK285573] the value was 118%.
For `COC(=O)c1ccccc1NC(=O)COc1ccc(Br)c(C)c1` [CBK263152], the viability at 28.5 h, 10 µM was 89.4%.
On to `CS(=O)(=O)N(CC(=O)Nc1ccccc1C(=O)N1CCOCC1)c1ccc(F)c(Cl)c1` [CBK267931], for which the viability at 28.5 h, 10 µM is 98.1%.
Under `O=C(N/N=C/c1ccc(Cl)cc1Cl)c1nc(-c2ccccc2)cc(-c2ccccc2)n1` [CBK262814] stands 90.1%; under `Nn1cnn2c(SCCSC3CCCCC3)nnc12` [CBK263192], 108%; under `COc1ccc(CC(=O)N(C)Cc2nnc3ccccn23)cc1` [CBK304935], 87.8%.
For `NS(=O)(=O)c1ccc(CNC(=O)c2cncc(-c3ccc(C(=O)N4CCOCC4)cc3)c2)cc1` [CBK158641] the value was 100%.
For `c1cc(OCCN2CCCC2)c2cc[nH]c2c1` [CBK083478] the value was 101%.
`O=C(c1cc(F)c(F)cc1F)N1CCC2(CCCN(Cc3ccc4ccccc4c3)C2)C1` (stereo not drawn) [CBK131998]: the viability at 28.5 h, 10 µM turned out to be 97.8%.
As to `O=[N+]([O-])c1ccc(NCCNC(=S)Nc2ccc(Cl)cc2)nc1` [CBK263594], the viability at 28.5 h, 10 µM came out at 85.8%.
For the compound `Cc1ccc(CNC(=O)c2cnoc2-c2ccc(Br)cc2)cc1F` [CBK154896], the viability at 28.5 h, 10 µM turned out to be 93.8%.
`Cn1nc2n(C)c(=O)c3ccc(C(=O)NC4CCCC4)cc3n2c1=O` [CBK287811]: the viability at 28.5 h, 10 µM was determined as 113%.
Under `Cc1ccc(Cl)cc1-n1cc(-c2ccc(Cl)cc2)nn1` [CBK113045] stands 82.4%; under `C[C@@H](c1ccccc1)n1c(=O)[nH]c2ncc(-c3ccc(C(=O)NC4CCCC4)cc3)nc21` [CBK064542], 91.2%; under `CCC(NC(=O)CCN1Cc2ccccc2C1=O)c1ccc(F)cc1` (stereo not drawn) [CBK282657], 104%.
For `COC1C(O)C(CO)OC1n1cc(C)c(N)nc1=O` (stereo not drawn) [CBK201227] the value was 108%.
For `O=C(CSc1nn2cnnc2s1)Nc1ccc(I)cc1` [CBK268913] the value was 88.2%.
For the compound `CSc1ccc(S(=O)(=O)NCCSCc2ccc(C)cc2)cc1` [CBK268510], the viability at 28.5 h, 10 µM was 104%.
Take `CCCOc1ccc(S(=O)(=O)NCc2ccc3c(c2)OCO3)c2ccccc12` [CBK269059]: the viability at 28.5 h, 10 µM was determined as 94.3%.
For `CCn1cc(C(=O)O)c(=O)c2cc(F)c(N3CCN(C(=S)Nc4cc(OC)ccc4OC)CC3)cc21` [CBK265831] the value was 85.7%; for `COCCCn1c(=O)[nH]c2ncc(-c3cccc(CO)c3)nc21` [CBK065104], 99.4%; for `COc1ccc(-c2cncc(N3CCCC3CO)n2)cc1` (stereo not drawn) [CBK037223], 112%.
Under `CNc1nc(C)c(C(=O)N2CCCC(COc3ccc(F)cc3)C2)s1` (stereo not drawn) [CBK307234] stands 103%.
For `O=C(NC1CCNCC1)c1cc2ccccc2[nH]1` [CBK168609] the value was 84.6%.
